From US4863946A, “2-[2H-(1,3-dihydroisoindole)alkylene]-4,5-dihydroimidazoles and pharmaceutical compositions thereof” (Beecham Group plc, priority 1985, dated 1989)
Where a name gives a salt, the structure may show the parent alone.

Target: T1, α2-Adrenoceptor (Homo sapiens, UniProt P08913)
T1 construct: from tissue; host or cells: human platelets (membranes)
T1 sequence (P08913 1-465): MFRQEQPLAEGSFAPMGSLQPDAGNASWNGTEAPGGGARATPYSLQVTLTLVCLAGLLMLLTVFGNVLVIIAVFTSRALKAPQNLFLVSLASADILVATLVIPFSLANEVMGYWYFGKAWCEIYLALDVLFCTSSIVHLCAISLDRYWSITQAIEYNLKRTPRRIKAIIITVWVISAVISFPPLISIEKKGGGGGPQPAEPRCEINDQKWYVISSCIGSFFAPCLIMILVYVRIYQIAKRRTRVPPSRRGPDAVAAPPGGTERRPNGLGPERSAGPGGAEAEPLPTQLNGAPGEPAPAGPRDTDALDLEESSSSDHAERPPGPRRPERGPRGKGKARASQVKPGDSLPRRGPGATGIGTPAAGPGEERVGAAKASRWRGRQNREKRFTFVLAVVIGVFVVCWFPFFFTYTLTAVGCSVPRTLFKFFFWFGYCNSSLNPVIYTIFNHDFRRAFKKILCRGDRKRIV
Experiment: α2-Adrenoceptor Binding ([3H] Rauwolscine, human platelet membranes)
Settings: [3H] Rauwolscine 0.5-1.0 nM, 30 minutes at 30° C., read-out: Binding Affinity. Ki
Method: (A) α2-Adrenoceptor Binding
Human platelet membranes were incubated with [^3 H] Rauwolscine (0.5-1.0 nM) for 30 minutes at 30° C. with varying concentrates of the drug (0.1-10,000 nM). The binding assay was stopped by filtering and rinsing on GF/B glass fibre filters. Binding Affinity (Ki) was calculated using the Ching Prussoff equation.

| Compound | Ki |
| --- | --- |
| c1ccc2c(c1)CN(CC1=NCCN1)C2 [Example 1, 2-[2H-(1,3-Dihydroisoindole)methyl]-4,5-dihydroimidazole] | 5 nM |
| Clc1ccc2c(c1)CN(CC1=NCCN1)C2 [Example 3, 2-[2H-(5-Chloro-1,3-dihydroisoindole)methyl]-4,5-dihydroimidazole] | 13 nM |
| c1ccc2c(c1)CCN(CC1=NCCN1)C2 [Example 4, 2-[(1,2,3,4-Tetrahydroisoquinoline)methyl]-4,5-dihydroimidazole] | 20 nM |
| Clc1cccc2c1CN(CC1=NCCN1)C2 [Example 2, 2-[2H-(4-Chloro-1,3-dihydroisoindole)methyl]-4,5-dihydroimidazole] | 7 nM |
| Cc1ccc2c(c1)CN(CC1=NCCN1)C2 [Example 7, 2-[2H-(5-Methyl-1,3-dihydroisoindole)methyl]-4,5-dihydroimidazole] | 22 nM |
| Fc1ccc2c(c1)CN(CC1=NCCN1)C2 [Example 5, 2-[2H-(5-Fluoro-1,3-dihydroisoindole)methyl]-4,5-dihydroimidazole] | 164 nM |
| COc1ccc2c(c1)CN(CC1=NCCN1)C2 [Example 6, 2-[2H-(5-Methoxy-1,3-dihydroisoindole)methyl]-4,5 dihydroimidazole dihydrochloride] | 89 nM |
